# Literature values in patent US20140271931A1, “Anti-Acne Topical Films” (Perosphere Inc., priority 2013, published 2014).
# What was measured:
# [1] = test system: cultured normal and transformed mammalian cells
# [2] = test system: cell interior
smiles,measurement,setting,value
"O=C(O)c1ccccn1 [Picolinic acid, 2-pyridine carboxylic acid]",inhibition of growth of cultured normal and transformed mammalian cells,[1],inhibits the growth
same,solubility in water,,readily soluble in water
CCCCc1ccc(C(=O)O)nc1 [Fusaric acid],penetration of the cell interior compared with picolinic acid,[2],penetrates the cell interior much more easily than picolinic acid
